# Reference: patent US8106048B2, “Heterocyclic NF-κB inhibitors” (4SC AG, priority 2004, dated 2012)
# System: A549-NF-κB-SEAP reporter cells
# Experiment: Inhibition of NF-κB-induced inflammation: […] NINA Instant Assay, TNF-α stimulated SEAP reporter
# Type: cell-based
# Conditions: % inhibition classes
# Text: For the determination of anti-inflammatory activity of the compounds the […]® NINA Instant Assay from Cell Culture Service GmBH was used. This assay is based on […] recombinant A549-NF-κB-SEAP reporter cells preceded in 96-well flat bottom plates. As the transfected reportergen for SEAP (secreted embryonic alkaline phosphatase) is under transcriptional control of a NF-κB-responsive element, the expression of this reporter is activated upon stimulation with TNF-α. SEAP secretion into the culture supernatant can be detected by the chemiluminescent substrate CSPD®. Test compounds that inhibit the NF-κB activation show reduced SEAP activity and reduced luminescent readout.
# Following 18 h of reactivation at 37° C., 5% CO2 and 90% relative humidity, the cells were incubated with 0.01 up to 100 μM of test compound for 4.5 h before stimulation with 2 ng/ml TNF-α. After stimulation with TNF-α for 22 h endogenous phosphatases were inactivated and CSPD® substrate was supplied for 40 min. SEAP activity then was quantified by measuring luminescence as relative light units (RLU) using a Tecan Ultra reader. Each data point was recorded in quadruplicates and EC50 values were calculated via fitting function and the Microsoft Excel Solver.
row,SMILES,Biological activity (inhibition in the NF-κB inflammation assay)
1,N=C(NC(=O)c1coc(NC(=O)c2ccccc2OC(F)(F)F)n1)Nc1nc2ccccc2[nH]1 [compound 28],+++ (“+++” stands for 90-100% inhibition)
2,COc1ccc(OC)c(N2CCC(c3nc(C(=O)N4CCN(c5cccc(C(F)(F)F)c5)CC4)cs3)CC2)c1 [compound 29],++ (“++” means 80-90%)
3,O=C(Nc1nc(C(=O)N2CCN(c3cccc(C(F)(F)F)c3)CC2)cs1)c1ccccc1OC(F)(F)F [compound 32],+++ (“+++” stands for 90-100% inhibition)
4,O=C(CCC1CCCC1)Nc1nc(C(=O)N2CCN(c3cccc(C(F)(F)F)c3)CC2)cs1 [compound 33],+++ (“+++” stands for 90-100% inhibition)
5,O=C(Nc1nc(C(=O)N2CCN(c3cccc(C(F)(F)F)c3)CC2)cs1)c1ccc(C(F)(F)F)c(F)c1 [compound 34],+++ (“+++” stands for 90-100% inhibition)
6,O=C(c1csc(C2CCN(CCC(c3ccccc3)c3ccccc3)CC2)n1)N1CCN(c2cccc(C(F)(F)F)c2)CC1 [compound 35],+++ (“+++” stands for 90-100% inhibition)
7,O=C(CCC1CCCC1)N1CCN(c2nc(C(=O)N3CCN(c4cccc(C(F)(F)F)c4)CC3)cs2)CC1 [compound 37],+++ (“+++” stands for 90-100% inhibition)
8,COc1ccccc1C(=O)N1CCN(c2nc(C(=O)N3CCN(c4cccc(C(F)(F)F)c4)CC3)cs2)CC1 [compound 38],+++ (“+++” stands for 90-100% inhibition)
9,O=C(c1csc(N2CCN(C(=O)c3ccccc3OC(F)(F)F)CC2)n1)N1CCN(c2cccc(C(F)(F)F)c2)CC1 [compound 39],+++ (“+++” stands for 90-100% inhibition)
10,O=C(Nc1nc(C(=O)N2CCN(c3ccc(Cl)c(Cl)c3)CC2)cs1)c1ccccc1OC(F)(F)F [compound 41],+++ (“+++” stands for 90-100% inhibition)
11,COc1ccccc1N1CCN(C(=O)c2csc(NC(=O)c3ccccc3OC(F)(F)F)n2)CC1 [compound 44],++ (“++” means 80-90%)
12,O=C(c1csc(C2CCN(C(=O)c3ccccc3OC(F)(F)F)CC2)n1)N1CCN(c2nc3ccccc3n2Cc2ccc(F)cc2)CC1 [compound 48],+++ (“+++” stands for 90-100% inhibition)
13,N=C(NC(=O)c1cnc(NC(=O)c2ccccc2OC(F)(F)F)s1)Nc1nc2ccccc2[nH]1 [compound 50],+++ (“+++” stands for 90-100% inhibition)
14,O=C(Nc1nc(C(=O)N2CCN(c3cccc(C(F)(F)F)c3)CC2)cs1)Nc1ccccc1OC(F)(F)F [compound 55],+++ (“+++” stands for 90-100% inhibition)
15,O=C(Nc1nc(C(=O)N2CCN(C(c3ccccc3)c3ccccc3)CC2)cs1)c1ccccc1OC(F)(F)F [compound 58],++ (“++” means 80-90%)
16,O=C(c1cc(C(F)(F)F)cc(C(F)(F)F)c1)N1CCN(c2nc(C(=O)N3CCN(c4cccc(C(F)(F)F)c4)CC3)cs2)CC1 [compound 59],+ (“+” stands for 50-80% inhibition)
17,O=C(c1ccc(C(F)(F)F)c(F)c1)N1CCN(c2nc(C(=O)N3CCN(c4cccc(C(F)(F)F)c4)CC3)cs2)CC1 [compound 60],+++ (“+++” stands for 90-100% inhibition)
18,N#Cc1ccc(C(=O)N2CCN(c3nc(C(=O)N4CCN(c5cccc(C(F)(F)F)c5)CC4)cs3)CC2)cc1 [compound 61],+++ (“+++” stands for 90-100% inhibition)
19,N#Cc1ccc(CN2CCN(c3nc(C(=O)N4CCN(c5cccc(C(F)(F)F)c5)CC4)cs3)CC2)cc1 [compound 62],+++ (“+++” stands for 90-100% inhibition)
20,CC(C)(C)OC(=O)N1CCN(c2nc(C(=O)N3CCN(c4cccc(C(F)(F)F)c4)CC3)cs2)CC1 [compound 63],++ (“++” means 80-90%)
21,O=C(c1csc(N2CCNCC2)n1)N1CCN(c2cccc(C(F)(F)F)c2)CC1 [compound 64],+ (“+” stands for 50-80% inhibition)
22,COc1ccccc1N1CCN(c2nc(C(=O)N3CCN(c4cccc(C(F)(F)F)c4)CC3)cs2)CC1 [compound 65],++ (“++” means 80-90%)
23,CC(=O)c1ccc(N2CCN(c3nc(C(=O)N4CCN(c5cccc(C(F)(F)F)c5)CC4)cs3)CC2)cc1 [compound 66],++ (“++” means 80-90%)
24,O=C(c1csc(N2CCN(c3cccc(C(F)(F)F)c3)CC2)n1)N1CCN(c2cccc(C(F)(F)F)c2)CC1 [compound 67],+ (“+” stands for 50-80% inhibition)

row,SMILES,Biological activity (inhibition in the NF-κB inflammation assay)
1,O=C(c1csc(N2CCN(c3ccccc3)CC2)n1)N1CCN(c2cccc(C(F)(F)F)c2)CC1 [compound 68],+ (“+” stands for 50-80% inhibition)
2,O=C(c1csc(N2CCN(c3ccc(F)cc3)CC2)n1)N1CCN(c2cccc(C(F)(F)F)c2)CC1 [compound 69],++ (“++” means 80-90%)
3,N#Cc1ccc(C(=O)N2CCC(c3nc(C(=O)N4CCN(c5cccc(C(F)(F)F)c5)CC4)cs3)CC2)cc1 [compound 70],++ (“++” means 80-90%)
4,O=C(c1csc(N2CCN(Cc3ccccc3)CC2)n1)N1CCN(C(c2ccccc2)c2ccccc2)CC1 [compound 71],+++ (“+++” stands for 90-100% inhibition)
5,O=C(c1csc(N2CCN(Cc3ccccc3)CC2)n1)N1CCN(c2cccc(C(F)(F)F)c2)CC1 [compound 72],+++ (“+++” stands for 90-100% inhibition)
6,O=C(Nc1ccccc1)N1CCC(c2nc(C(=O)N3CCN(c4cccc(C(F)(F)F)c4)CC3)cs2)CC1 [compound 73],++ (“++” means 80-90%)
7,O=C(Nc1cc(F)cc2c1OCCO2)N1CCC(c2nc(C(=O)N3CCN(c4cccc(C(F)(F)F)c4)CC3)cs2)CC1 [compound 74],++ (“++” means 80-90%)
8,O=C(Nc1ccc2c(c1)OCCO2)N1CCC(c2nc(C(=O)N3CCN(c4cccc(C(F)(F)F)c4)CC3)cs2)CC1 [compound 75],++ (“++” means 80-90%)
9,Cc1cc(NC(=O)N2CCC(c3nc(C(=O)N4CCN(c5cccc(C(F)(F)F)c5)CC4)cs3)CC2)c(C(F)(F)F)o1 [compound 76],++ (“++” means 80-90%)
10,O=C(NCCc1cccs1)N1CCC(c2nc(C(=O)N3CCN(c4cccc(C(F)(F)F)c4)CC3)cs2)CC1 [compound 77],+++ (“+++” stands for 90-100% inhibition)
11,CC(C)NC(=O)N1CCC(c2nc(C(=O)N3CCN(c4cccc(C(F)(F)F)c4)CC3)cs2)CC1 [compound 78],+ (“+” stands for 50-80% inhibition)
12,O=C(Nc1ccccc1OC(F)(F)F)N1CCC(c2nc(C(=O)N3CCN(c4cccc(C(F)(F)F)c4)CC3)cs2)CC1 [compound 79],+++ (“+++” stands for 90-100% inhibition)
13,COc1cccc(NC(=O)N2CCC(c3nc(C(=O)N4CCN(c5cccc(C(F)(F)F)c5)CC4)cs3)CC2)c1 [compound 80],+ (“+” stands for 50-80% inhibition)
14,COc1cc(NC(=O)N2CCC(c3nc(C(=O)N4CCN(c5cccc(C(F)(F)F)c5)CC4)cs3)CC2)cc(OC)c1OC [compound 81],++ (“++” means 80-90%)
15,NC(=Nc1nc2ccccc2[nH]1)NC(=O)c1csc(NC(=O)c2ccccc2OC(F)(F)F)n1 [compound 82],+++ (“+++” stands for 90-100% inhibition)
16,Nc1cc(=O)[nH]c(NC(=O)c2csc(C3CCN(C(=O)c4ccccc4OC(F)(F)F)CC3)n2)n1 [compound 83],+ (“+” stands for 50-80% inhibition)
17,O=C(Nc1nnc(Cc2ccccc2)[nH]1)c1csc(C2CCN(C(=O)c3ccccc3OC(F)(F)F)CC2)n1 [compound 84],+ (“+” stands for 50-80% inhibition)
18,CN(C)c1nc(NC(=O)c2csc(C3CCN(C(=O)c4ccccc4OC(F)(F)F)CC3)n2)cc(=O)[nH]1 [compound 85],+ (“+” stands for 50-80% inhibition)
19,Cc1cc(=O)[nH]c(NC(=O)c2csc(C3CCN(C(=O)c4ccccc4OC(F)(F)F)CC3)n2)n1 [compound 86],+ (“+” stands for 50-80% inhibition)
20,CN(C)c1ncnc(NC(=O)c2csc(C3CCN(C(=O)c4ccccc4OC(F)(F)F)CC3)n2)n1 [compound 88],+ (“+” stands for 50-80% inhibition)
21,Nc1nc(NC(=O)c2csc(C3CCN(C(=O)c4ccccc4OC(F)(F)F)CC3)n2)n[nH]1 [compound 89],+ (“+” stands for 50-80% inhibition)
22,N#CNC(=N)NC(=O)c1csc(C2CCN(C(=O)c3ccccc3OC(F)(F)F)CC2)n1 [compound 90],+ (“+” stands for 50-80% inhibition)
23,N=C(NC(=O)c1csc(C2CCN(C(=O)C(c3ccccc3)c3ccccc3)CC2)n1)Nc1nc2ccccc2[nH]1 [compound 93],+ (“+” stands for 50-80% inhibition)
24,N=C(NC(=O)c1csc(C2CCNCC2)n1)Nc1nc2ccccc2[nH]1 [compound 94],+ (“+” stands for 50-80% inhibition)
